According to US8129423B2, “Imidazolone and imidazoloidinone derivatives as 11b-HSD1 inhibitors” (Hoffman-La Roche Inc., priority 2006, dated 2012):

Legend:
[1] = molecular target: T1, 11beta-HSD1 (Homo sapiens, UniProt P28845); experiment: Microsome assay: cortisone to cortisol conversion, ELISA-based cortisol detection; assay type: biochemical; set-up: made in house; host or cells: HEK293 cells (ATCC CRL-1573), transient transfection with lipofectamine; microsomal fraction; settings: microsomes from HEK293 cells transiently expressing human 11beta-HSD1; cortisone 50-200 nM, NADPH 1 mM, 60 min, 37° C.; read-out: h 11-beta-HSD 1 IC50
Method: The cDNA encoding the human 11beta-HSD1 protein was cloned into the expression vector pcDNA3 ([…]). This construct (for details see Alex Odermatt et al.; J Biol. Chem., 1999, Vol. 274, Issue 40, 28762-28770) was used to transiently express the protein in HEK293 cells (ATCC number: CRL-1573, described in Graham, F. L., Smiley, J., Russell, W. C., Nairn, R.; (1977)) using lipofectamine. 48 h after transfection cells were washed twice with ice-cold PBS (Phsophate buffered Saline). To 1 volume of cell suspension in PBS 2 volumes of ice-cold lysis buffer (50 mM Tris; pH7.5; 1 mM EDTA; 100 mM NaCl) were added. The cells were lysed by Potter-homogenization (20 strokes). The resulting homogenate was sonicated with a tip sonicator (10% output; 2×30 sec.) and cleared by a low speed centrifugation (10 min×9000 g; 4° C.). The microsomal fraction was collected by a high speed centrifugation (60 min×110,000 g). The resulting pellet was resuspended in storage buffer (20 mM Tris pH 7.5; 1 mM EDTA; 10% Glycerol) and the centrifugation was repeated. The resulting pellet containing the microsomal fraction was again taken up into storage buffer and aliquots were kept frozen in liquid Nitrogen until use.
Microsomes isolated from HEK293 cells transiently expressing human 11beta-HSD1 (for details see above) were incubated in assay buffer (100 mM NaCl; 1 mM EDTA; 1 mM EGTA; 1 mM MgCl; 250 mM Sucrose; 20 mM Tris pH 7.4; Cortisone 50-200 nM and NADPH 1 mM) together with different concentrations of test substances. After 60 min. of incubation at 37° C. the assay was stopped by heating to 80° C. (5 min.) and by addition of the inhibitor Carbenoxolone (1 uM). The amount of Cortisol produced in this assay was determined using a commercially available, ELISA-based Cortisol-detection kit (Distributed by Assay Design, Inc.). Inhibitors were characterized by their IC50 values, e.g. the concentration at which the production of cortisol was 50% reduced.

[2] = molecular target: T1, 11beta-HSD1; set-up: host or cells: in vivo treatment of human subjects; settings: in man, treatment with carbenoxolone; cited from earlier work

T1 sequence (P28845 whole entry): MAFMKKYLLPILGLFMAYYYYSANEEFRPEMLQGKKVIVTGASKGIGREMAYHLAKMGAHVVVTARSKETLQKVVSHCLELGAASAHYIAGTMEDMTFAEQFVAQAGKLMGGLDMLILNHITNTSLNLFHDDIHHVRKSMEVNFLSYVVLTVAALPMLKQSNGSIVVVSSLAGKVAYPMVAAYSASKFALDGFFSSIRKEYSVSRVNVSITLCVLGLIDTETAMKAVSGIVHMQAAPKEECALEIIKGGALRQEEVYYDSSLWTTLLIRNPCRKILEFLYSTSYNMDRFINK

IC50 [1] [nM] | Compound | insulin sensitivity [2]
39 | O=c1[nH]c(CC(F)(F)F)cn1C1C2CC3CC(C2)CC1C3 (stereo not shown) [Example 16, 1-Adamantan-2-yl-4-(2,2,2-trifluoro-ethyl)-1,3-dihydro-imidazol-2-one] | 
192 | CC(C)Cc1cn(-c2ccccc2OC(F)(F)F)c(=O)n1CC1CC1 [Example 45, 3-Cyclopropylmethyl-4-isobutyl-1-(2-trifluoromethoxy-phenyl)-1,3-dihydro-imidazol-2-one] | 
3 | CC1(C2CC2)CN(C2C3CC4CC2CC(O)(C4)C3)C(=O)N1C1CC1 (stereo not shown) [Example 80, 3,4-Dicyclopropyl-1-[(E)-5-hydroxy-adamantan-2-yl]-4-methyl-imidazolidin-2-one] | 
 | CC1(C)[C@@H](OC(=O)CCC(=O)O)CC[C@]2(C)[C@H]3C(=O)C=C4[C@@H]5C[C@@](C)(C(=O)O)CC[C@]5(C)CC[C@@]4(C)[C@]3(C)CC[C@@H]12 [carbenoxolone] | increase in insulin sensitivity
